Source: article PMC8675232 (Frontiers in Pharmacology, 2021)

How the values were obtained:
[1] = tested on: healthy Chinese male volunteers; assay: Pharmacodynamics (glucose infusion rate) in 24-h euglycemic clamp; format: in vivo; settings: 0.4 IU/kg s.c. single dose, mean ± SD
Method: The volunteers were screened and qualified for the entry standard. […] During the trial, volunteers were requested to avoid strenuous exercises, smoking, drinking alcohol, or caffeinated drinks (e.g., tea and coffee). […] C-peptide reduction rate <30%; group B: […] The trial was carried out in accordance with the principles of the Declaration of Helsinki. This study was approved by the Ethics Committee of the First Affiliated Hospital of ChongQing Medical University (No. 20190101). All recruited volunteers underwent a single-dose euglycemic clamp test. Participants arrived at the ward on the day prior to the clamp test to ensure a 10-h fasting condition and to maintain fasting during euglycemic clamping. […] Intravenous access was obtained in one arm for a 20% glucose infusion and in the other for blood drawing. The arm for blood drawing was heated using a warming blanket to arterialize venous blood (55-65°C). […] Basal glucose (BG) was defined as the average blood glucose level before injection; the target glucose (TG) level was defined as the BG minus 0.28 mmol/[…] al., 2015b]); and we controlled the blood glucose concentration as close as possible to the TG level. The glucose infusion rate (GIR) was manually adjusted by investigators to maintain blood glucose at the target value. […] SPSS 22.0 and WinNonlin 8.1 were used for statistical analysis. […] The oscillation of glucose was calculated with formula 1-Gt (glucose at time t)/Gd (desired glucose). […] The pharmacodynamic parameters were area under the glucose infusion rate versus time curve (AUCGIR0-24 h), peak of glucose infusion rate (GIRmax), and time to […]).

[2] = in vivo; cited from earlier work
[3] = group A (C-peptide reduction <30%, n = 13)
[4] = group B (C-peptide reduction ≥30% and <50%, n = 15)
[5] = group C (C-peptide reduction ≥50%, n = 11)

Substance | AUCGIR0–24 h [1, 3] [mg/kg] | GIRmax [1, 3] [mg/kg/min] | TGIRmax [1, 3] [min] | AUCGIR0–24 h [1, 4] [mg/kg] | GIRmax [1, 4] [mg/kg/min] | TGIRmax [1, 4] [min] | AUCGIR0–24 h [1, 5] [mg/kg] | GIRmax [1, 5] [mg/kg/min] | TGIRmax [1, 5] [min] | half-life [2] [min]
insulin glargine | 3175.9 ± 1135.2 | 3.5 ± 1.3 | 593.1 ± 198.1 | 2862.9 ± 1176.0 | 3.4 ± 1.4 | 584.0 ± 199.1 | 2526.1 ± 1222.0 | 3.0 ± 1.5 | 756.4 ± 228.0 | –
C-peptide | – | – | – | – | – | – | – | – | – | 20 to 30
